In PubChem BioAssay (NCI):
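A five-concentration, 48-hour dose response in 96-well plates underlies each endpoint, interpolated linearly between surrounding concentrations. GI50 marks 50% less growth. At the TGI there is no net growth.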

Experiments:
Experiment in all cases: growth of human tumour cells (NCI), 48 h
[1] = tested on: MDA-MB-435
[2] = tested on: SF-268 CNS
[3] = tested on: K-562 leukemia
[4] = tested on: UO-31 renal
[5] = tested on: SNB-75 CNS
[6] = tested on: 786-0 renal
[7] = tested on: OVCAR-8 ovarian
[8] = tested on: HOP-62 NSCLC
[9] = tested on: HT29 colon
[10] = tested on: MCF7 breast
[11] = tested on: HCT-116 colon
[12] = tested on: CAKI-1 renal
[13] = tested on: SW-620 colon
[14] = tested on: IGROV1 ovarian
[15] = tested on: BT-549 breast
[16] = tested on: HS 578T breast
[17] = tested on: SK-OV-3 ovarian
[18] = tested on: DU-145 prostate
[19] = tested on: EKVX NSCLC
[20] = tested on: U251 CNS
[21] = tested on: M14 melanoma
[22] = tested on: ACHN renal
[23] = tested on: OVCAR-4 ovarian
[24] = tested on: OVCAR-3 ovarian
[25] = tested on: MOLT-4 leukemia
[26] = tested on: A498 renal
[27] = tested on: A549 NSCLC
[28] = tested on: NCI/ADR-RES ovarian
[29] = tested on: SK-MEL-2 melanoma
[30] = tested on: HCT-15 colon
[31] = tested on: CCRF-CEM leukemia
[32] = tested on: HL-60(TB) leukemia
[33] = tested on: OVCAR-5 ovarian
[34] = tested on: SF-539 CNS
[35] = tested on: HOP-92 NSCLC
[36] = tested on: T-47D breast
[37] = tested on: RXF 393 renal
[38] = tested on: SR leukemia
[39] = tested on: SK-MEL-5 melanoma
[40] = tested on: LOX IMVI melanoma
[41] = tested on: SF-295 CNS
[42] = tested on: TK-10 renal
[43] = tested on: KM12 colon
[44] = tested on: SK-MEL-28 melanoma
[45] = tested on: NCI-H23 lung
[46] = tested on: NCI-H460 lung
[47] = tested on: PC-3 prostate
[48] = tested on: SNB-19 CNS
[49] = tested on: NCI-H226 lung
[50] = tested on: NCI-H522 lung
[51] = tested on: HCC-2998 colon
[52] = tested on: MDA-MB-231 breast
[53] = tested on: SN12C renal
[54] = tested on: RPMI-8226 leukemia
[55] = tested on: COLO 205 colon
[56] = tested on: UACC-62 melanoma

SMILES: O=C(c1ccccc1)C(Cl)C(Cl)c1ccccc1 (configuration not stated)
- GI50 [1]: 2.26 µM
- TGI [1]: 5.56 µM
- GI50 [2]: 4.71 µM
- TGI [2]: 17.3 µM
- GI50 [3]: 2.6 µM
- TGI [3]: 10.3 µM
- GI50 [4]: 1.62 µM
- TGI [4]: 3.45 µM
- GI50 [5]: 11.2 µM
- TGI [5]: 23.3 µM
- GI50 [6]: 1.79 µM
- TGI [6]: 3.52 µM
- GI50 [7]: 3.06 µM
- TGI [7]: 10.1 µM
- GI50 [8]: 7.61 µM
- TGI [8]: 21.7 µM
- GI50 [9]: 2.05 µM
- TGI [9]: 4.12 µM
- GI50 [10]: 1 µM
- TGI [10]: 10.3 µM
- GI50 [11]: 1.44 µM
- TGI [11]: 2.95 µM
- GI50 [12]: 2.53 µM
- TGI [12]: 8.18 µM
- GI50 [13]: 1.41 µM
- TGI [13]: 3.36 µM
- GI50 [14]: 3.45 µM
- TGI [14]: 11.4 µM
- GI50 [15]: 2.55 µM
- TGI [15]: 6.12 µM
- GI50 [16]: 9.28 µM
- TGI [16]: 45.3 µM
- GI50 [17]: 16.8 µM
- TGI [17]: 30.5 µM
- GI50 [18]: 2.89 µM
- TGI [18]: 10.2 µM
- GI50 [19]: 5.24 µM
- TGI [19]: 18.9 µM
- GI50 [20]: 3.97 µM
- TGI [20]: 14.3 µM
- GI50 [21]: 2.12 µM
- TGI [21]: 4.79 µM
- GI50 [22]: 2.21 µM
- TGI [22]: 5.23 µM
- GI50 [23]: 3.45 µM
- TGI [23]: 14.4 µM
- GI50 [24]: 2.03 µM
- TGI [24]: 4.57 µM
- GI50 [25]: 2.33 µM
- TGI [25]: 6.25 µM
- GI50 [26]: 13.6 µM
- TGI [26]: 27.1 µM
- GI50 [27]: 18.3 µM
- TGI [27]: 34.2 µM
- GI50 [28]: 2.44 µM
- TGI [28]: 7.35 µM
- GI50 [29]: 3.55 µM
- TGI [29]: 9.33 µM
- GI50 [30]: 2.12 µM
- TGI [30]: 9.03 µM
- GI50 [31]: 1.67 µM
- TGI [31]: 6.93 µM
- GI50 [32]: 3.04 µM
- TGI [32]: 8.58 µM
- GI50 [33]: 5.48 µM
- TGI [33]: 20.9 µM
- GI50 [34]: 3.01 µM
- TGI [34]: 10.2 µM
- GI50 [35]: 2.31 µM
- TGI [35]: 6.99 µM
- GI50 [36]: 2.74 µM
- TGI [36]: 11.3 µM
- GI50 [37]: 1.72 µM
- TGI [37]: 3.52 µM
- GI50 [38]: 0.381 µM
- TGI [38]: 7.65 µM
- GI50 [39]: 2.93 µM
- TGI [39]: 10.7 µM
- GI50 [40]: 1.43 µM
- TGI [40]: 2.82 µM
- GI50 [41]: 12.9 µM
- TGI [41]: 26 µM
- GI50 [42]: 3.14 µM
- TGI [42]: 9.12 µM
- GI50 [43]: 3.76 µM
- TGI [43]: 15.1 µM
- GI50 [44]: 2.47 µM
- TGI [44]: 6.46 µM
- GI50 [45]: 3.27 µM
- TGI [45]: 12.8 µM
- GI50 [46]: 6.66 µM
- TGI [46]: 22.5 µM
- GI50 [47]: 5.29 µM
- TGI [47]: 15.8 µM
- GI50 [48]: 6.85 µM
- TGI [48]: 21.2 µM
- GI50 [49]: 2.17 µM
- TGI [49]: 5.35 µM
- GI50 [50]: 1.7 µM
- TGI [50]: 3.42 µM
- GI50 [51]: 2 µM
- TGI [51]: 3.56 µM
- GI50 [52]: 3.16 µM
- TGI [52]: 8.97 µM
- GI50 [53]: 2.1 µM
- TGI [53]: 5.95 µM
- GI50 [54]: 2.27 µM
- TGI [54]: 7.08 µM
- GI50 [55]: 2.06 µM
- TGI [55]: 4.26 µM
- GI50 [56]: 1.69 µM
- TGI [56]: 3.69 µM
